The text below walks through data of paper PMC5100903, “Tissue Kallikrein Inhibitors Based on the Sunflower Trypsin Inhibitor Scaffold – A Potential Therapeutic Intervention for Skin Diseases” (PLoS ONE, 2016).

The target in series [1] is T1, KLK5 (Homo sapiens, UniProt Q9Y337).
T1 construct: purchased Novoprotein
T1 sequence (Q9Y337 23-293): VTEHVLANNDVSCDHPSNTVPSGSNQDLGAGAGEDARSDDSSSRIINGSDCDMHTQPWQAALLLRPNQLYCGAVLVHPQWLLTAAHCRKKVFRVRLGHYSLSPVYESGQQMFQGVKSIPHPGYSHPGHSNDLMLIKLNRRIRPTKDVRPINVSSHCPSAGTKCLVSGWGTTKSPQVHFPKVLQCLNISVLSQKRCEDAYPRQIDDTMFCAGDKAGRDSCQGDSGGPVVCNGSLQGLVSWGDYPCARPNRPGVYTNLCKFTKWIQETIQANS
Nature of the series: KLK5 inhibition, fluorogenic Boc-VPR-AMC assay (S1 Table conditions). It is filed as biochemical. The settings on record: read-out: BOC-VPR-AMC IC50 (N = 3); KLK5 10 nM, Boc-VPR-AMC 41.6 μM, 1xPBS pH 8.0, 15 min on ice preincubation, read at 15 min, 25°C. Here is the method:
All assays were performed on 96-well microplates and the change in relative fluorescence unit (RFU) was measured by fluorescence spectrometer (BMG FLUOstar OPTIMA). […] Stock solution of Boc-VPR-AMC was prepared by dissolving the solid in dimethyl sulfoxide to 100 mM and 10 mM for MeOSuc-AAPV. For BODIPY_FL casein, it was reconstituted to 1 mg/mL in 1xPBS. […] The % of inhibition was calculated by the following equation: % of Inhibition=(1−(Sample RFU − Min RFU)/(Max RFU − Min RFU)) X100
(§1) Each inhibition curves were done in triplicates with a minimum of five concentration points fitted. Fitting of each curve was done using SigmaPlot with the Four Parameter Logistic Function and the IC50 calculated. […] All tested compounds were reconstituted to stock solution in water.
The diluent for all the tested compounds, protein and substrate was 1xPBS pH 8.0. Zinc sulfate and p-aminobenzamidine were purchased from Sigma (Dorset, U.K.). […] The ligand-protein mixtures were incubated on ice for 15 minutes and 20 μL was transferred to a well of a 96-well microplate (ThermoScientific, Waltham, U.S.) in triplicate. […] Change in RFU was measured 15 minutes after substrate addition at 25°C.

For series [2] the following is noted: amide bond, 42-membered ring, MESNa (NCL via N-S acyl transfer), then NH4HCO3 oxidation, 0.1 M Na phosphate pH 5.8, 55.0 °C, 2 steps.
Series [3] deals with T1, KLK5. Briefly: biochemical. The format is binding. The method, then:
ITC experiments were performed on a MicroCal iTC200 calorimeter (GE Healthcare, Uppsala, Sweden) at 298.15 K with a stirring speed of 750 revolutions per minute. Concentrated (450 μM) ligand solutions were injected into protein (KLK5) solution (20 μM, 280 μL sample volume) in the sample cell. Injection volumes were 2 μL for I10H and Analogue 1 and 1 μL for Analogue 2 and 6 with a spacing of 120 seconds between each injection. Concentrations of ligands were determined by dried weight and they were reconstituted to 10 mM stock in H2O. Concentration of KLK5 was determined by UV280 calculated with an extinction coefficient of 38680 and molecular weight of 32KDa (including weight of glycosylation). The protein solution were buffer exchanged using spin column to 1xPBS (137 mM NaCl, 2.7 mM KCl, 4.3 mM Na2HPO4, 1.47 mM KH2PO4 pH 8.0) or 20 mM MES buffer (with 150 mM NaCl, pH 5.5). Ligand stocks were diluted in those buffers (4.5 μL + 95.5 μL buffer), and then equal v/v % of H2O was added to the protein solution after buffer exchange to ensure matching buffer contents. Heat of dilution was undetectable in control experiments. Data were analyzed using OriginLab version 7.0.

The target of a further series is T2, KLK7 (Homo sapiens, UniProt P49862).
T2 construct: purchased R&D
T2 sequence (P49862 30-253): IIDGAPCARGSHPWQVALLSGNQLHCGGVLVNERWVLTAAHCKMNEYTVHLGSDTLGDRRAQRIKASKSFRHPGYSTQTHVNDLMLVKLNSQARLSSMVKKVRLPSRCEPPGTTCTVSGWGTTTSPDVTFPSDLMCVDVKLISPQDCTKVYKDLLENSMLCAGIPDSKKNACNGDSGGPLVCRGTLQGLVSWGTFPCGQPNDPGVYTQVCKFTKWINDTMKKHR
Nature of the series: biochemical. The method, then:
(§2) All assays were performed on 96-well microplates and the change in relative fluorescence unit (RFU) was measured by fluorescence spectrometer (BMG FLUOstar OPTIMA). The excitation/emission wavelength was 360/460 nm for the substrate Boc-VPR-AMC (Bachem AG, Hauptstrasse, Switzerland) and MeOSuc-AAPV-AMC (Bachem AG, Hauptstrasse, Switzerland) and 485/520 nm for BODIPY_FL casein (Invitrogen, Carlsbad, US). Stock solution of Boc-VPR-AMC was prepared by dissolving the solid in dimethyl sulfoxide to 100 mM and 10 mM for MeOSuc-AAPV. For BODIPY_FL casein, it was reconstituted to 1 mg/mL in 1xPBS. […] The % of inhibition was calculated by the following equation: % of Inhibition=(1−(Sample RFU − Min RFU)/(Max RFU − Min RFU)) X100
as §1
Recombinant KLK7, KLK8 and KLK14 (>95% purity by SDS-PAGE, endotoxin <0.1 ng/μg, R&D, Minneapolis, U.S.) stocks were diluted with 1xPBS to a concentration of 120 nM. KLK7 and KLK14 were activated by addition of 1 mM f/c CaCl2 (Sigma, Dorset, U.K.), 0.05% v/v Brij35 (Sigma, Dorset, U.K.), 20 nM f/c thermolysin (Sigma, Dorset, U.K.) and incubated at 37°C for 1 hour. The reaction was stopped by addition of ethylenediaminetetraacetic acid (EDTA, 50 mM f/c). KLK8 was activated by addition of 11 nM f/c lysyl endopeptidase (Santa Cruz Biotechnology, Dallas, U.S.) and incubation at 37°C for 0.5 hour. […] The RFU value reached by the thermolysin control was used as the minimum RFU for calculating the % of inhibition for KLK7.
The diluent for all the tested compounds, protein and substrate (except KLK7, which was done with 10 mM Tris pH 7.8) was 1xPBS pH 8.0–8.9. The serially diluted ligands were mixed with diluted bovine trypsin (Sigma, Dorset, U.K.) or activated KLK14, or KLK5, or activated KLK8 or matriptase (catalytic domain only, >90% purity by SDS-PAGE, endotoxin <0.1 ng/μg, R&D, Minneapolis, U.S.) or activated KLK7 or human neutrophil elastase (purified from human plasma, >95% purity by SDS-PAGE, Abcam, Cambridge, U.K.) or porcine pancreatic elastase 1 (Sigma, Dorset, U.K.) or human plasma kallikrein or human plasma plasmin (purified from human plasma, ≥95% purity by SDS-PAGE, BioVision, Milpitas, U.S.). 20μL of the ligand-protein mixture was pipetted to a well of a 96-well microplate in triplicates. The reaction was started by addition of 90–100 μL of the diluted substrate solution (contained 0.05% v/v Brij35) and the plate incubated at 25°C but 37°C for KLK7. RFU reading for each well was taken 6 minutes (trypsin) or 15 minutes (KLK14, KLK5, KLK8, matriptase, human neutrophil elastase, porcine pancreatic elastase 1, plasma kallikrein and plasmin) or 20 hours (KLK7) after substrate addition.

Series [4] concerns the target T1, KLK5. Nature of the series: biochemical. Here is the method: as §2, §1
The diluent for all the tested compounds, protein and substrate was 1xPBS. Serially diluted ligands were mixed with diluted recombinant KLK5 (10 nM f/c). The ligand-protein mixtures were incubated on ice for one hour and 19.5 μL was pipetted into a well of a 96-well microplate in triplicates. To start the reaction, 100 μL of the diluted (41.6 μM f/c) Boc-VPR-AMC substrate solution (contained 0.05% v/v Brij35) was added. The plate was incubated at 37°C and the RFU reading was taken 15 minutes after.
There are two previously reported Km values for KLK5 and its substrate Boc-VPR-AMC which allowed the IC50 to Ki conversion. Ki values were calculated according to the Cheng-Prusoff equation Ki= IC50/1+[S]/Km for single site competitive binding.

Like-named read-outs stand apart in the source and are kept apart here. Positions of bridges follow the written chain, without caps; N, C: chain ends. Residues, ends and D or L forms follow the SMILES beside them.

By IC50 is commonly meant the concentration that inhibits the measured activity by half. Regarding `O=S(=O)([O-])[O-].[Zn+2]` [Zinc Sulfate], the IC50 on KLK5 [1] stood at 2940 nM.

GRCTKSIPPHCFPD had a ring closure, yield after HPLC in series [2] (0.6 mM) of 19%.

In series [2] (0.6 mM), GRCTKSIPPHCYPD gave a ring closure, yield after HPLC of 19%.

Broadly, the Kd is a measure of binding affinity in units of concentration. A lower Kd goes with higher affinity. A word on the Ki: it is a measure of affinity in units of concentration, obtained from inhibition or displacement. At KLK5 [3], `CC[C@H](C)[C@@H]1NC(=O)[C@H](CO)NC(=O)[C@H](CCCNC(=N)N)NC(=O)[C@H]([C@@H](C)O)NC(=O)[C@@H]2CSSC[C@H](NC(=O)[C@H](Cc3c[nH]cn3)NC(=O)[C@@H]3CCCN3C(=O)[C@@H]3CCCN3C1=O)C(=O)N[C@@H](Cc1ccccc1)C(=O)N1CCC[C@H]1C(=O)N[C@@H](CC(=O)O)C(=O)NCC(=O)N[C@@H](CCCNC(=N)N)C(=O)N2` [Analogue 1] (cyclo(CFPDGRCTRSIPPH); disulfide 1-7) came in with a Kd of 115 nM. In addition, on KLK5 [3] (ITC, 1xPBS pH 8.0, 25°C), the “Stoichiometry (N)” value was 1.03±0.01, the ΔH was 1.216 ± 0.021 kcal/mol and the ΔS was determined as 35.8 cal mol^-1 kelvin^-1. The ΔG on KLK5 [3] (ITC, 25°C) is -9.457 kcal/mol. Further, the Ka on KLK5 [3] (ITC, 25°C (Table S2, unit not given)) came out at 8.7E6±2.7E6. In addition, on KLK7, the IC50 was found to be 2290 ± 68 nM. On KLK5 [4], this compound had an IC50 of 65 ± 10 nM and an inhibition constant Ki of 60 nM.

GRCTRSIPPHCFPD came in with a ring closure, yield after HPLC in series [2] (0.59 mM) of 24%.

In series [2] (0.58 mM), NRCTKSIPPHCFPD registered a ring closure, yield after HPLC of 25%.

Compound GRCTRSIPPHCWPD had a ring closure, yield after HPLC in series [2] (0.58 mM) of 24%.

On to GRCTKSKPPHCFPD, for which, in series [2] (0.6 mM), the ring closure, yield after HPLC was found to be 16%.

`N=C(N)c1ccc(N)cc1` [p-Aminobenzamidine]: the IC50 at KLK5 [1] was 60400 nM.

The compound GRCTKSIPPHCWPD yielded a ring closure, yield after HPLC in series [2] (0.59 mM) of 25%.
